Assay results: patent US11702419B2, “Heterocyclic compound and use thereof” (Takeda Pharmaceutical Company Limited, priority 2018, dated 2023)

Molecular target: T1, NMDA receptor composed of four subunits consisting of two sets of heterodimers of NR1 and NR2B (human GRIN1 and GRIN2B-expressing HEK293 cells) (Homo sapiens, UniProt Q13224)
T1 construct: host or cells: HEK293 (tetracycline-inducible expression)
Assay: NR2B Ca2+ influx assay
Type: cell-based
Settings: 10 μM compound, glutamic acid/glycine-induced Ca2+ influx, FLIPR, read-out: inhibitory rate (10 μM compound concentration)
Description: In order to confirm an “antagonistic action on an NMDA receptor containing the NR2B subunit” which the compound of the present invention has, inhibitory effect on the NMDA receptor activation was evaluated using “NMDA receptor composed of four subunits consisting of two sets of heterodimers of NR1 and NR2B”-expressing human fetal renal cells, specifically human glutamate ionotropic receptor NMDA type subunit 1 (GRIN1) and human glutamate ionotropic receptor NMDA type subunit 2B (GRIN2B)-expressing HEK293 cells.
As an index of the NMDA receptor activation, intracellular calcium ion (Ca^2+) influx caused by bonding of glycine and glutamate to NR1 and NR2B respectively was used. HEK293 cells were purchased from ChanTest. The cells were cultured in a DMEM/F-12 (COSMO BIO, 10-092-CM) medium containing 10% FBS (fetal bovine serum, AusGene), 100 units/mL penicillin, 100 μg/mL streptomycin, 500 μg/mL neomycin, 100 μg/mL Zeocin and 5 μg/mL Blasticidin at 37° C., 5% CO2. The cells were detached from flask with trypsin the day before the assay, suspended in a seeding medium (DMEM (Invitrogen, 31053) containing 10% FBS, 100 units/mL penicillin and 100 μg/mL streptomycin) at 8×10^5 cells/mL, seeded by 25 μL per well in a 384-well plate (Falcon, 356663) at 20000 cells/well, and cultured overnight in an incubator. On the day of the assay, tetracycline (Wako Pure Chemical Industries, 209-16561) was diluted with the seeding medium at 2 μg/mL, and the dilution was added at 25 μL/well to the plate seeded with the cells, and the cells were cultured for 2 hr in an incubator. Thereafter, the medium was removed, and the cells were washed with 50 μL/well of assay buffer (137 mM NaCl, 4 mM KCl, 1.8 mM CaCl2, 10 mM HEPES (pH 7.2), 10 mM Glucose, and 0.1% BSA). Then, a loading buffer (assay buffer containing 2.5 μM Fluo-4AM, 2 mM Amaranth and 1 mM Tartrazine) was added thereto at 25 μL/well, and loading was performed in the incubator for 30 min, and then at room temperature for 15 min. The test compound was diluted with the above-mentioned assay buffer so as to adjust the concentration to 30 μM, the obtained solution (25 μL) was added thereto (the final concentration 10 μM), and the cells were stood for 15 min at room temperature. Using FLIPR (Molecular Devices), 25 μL of an assay buffer containing 30 μM glutamic acid and 30 μM glycine was added thereto, and the fluorescence signal was measured every 3 seconds for 5 min. The relative activity value (inhibitory rate) was calculated when the cumulative total value of the fluorescence value of a well added with a buffer free of glutamic acid and glycine, relative to the cumulative total value of the fluorescence value of each well are regarded as 100% inhibition. The obtained value was evaluated as an inhibitory activity.

T1 sequence (Q13224 27-1484, other chains not shown): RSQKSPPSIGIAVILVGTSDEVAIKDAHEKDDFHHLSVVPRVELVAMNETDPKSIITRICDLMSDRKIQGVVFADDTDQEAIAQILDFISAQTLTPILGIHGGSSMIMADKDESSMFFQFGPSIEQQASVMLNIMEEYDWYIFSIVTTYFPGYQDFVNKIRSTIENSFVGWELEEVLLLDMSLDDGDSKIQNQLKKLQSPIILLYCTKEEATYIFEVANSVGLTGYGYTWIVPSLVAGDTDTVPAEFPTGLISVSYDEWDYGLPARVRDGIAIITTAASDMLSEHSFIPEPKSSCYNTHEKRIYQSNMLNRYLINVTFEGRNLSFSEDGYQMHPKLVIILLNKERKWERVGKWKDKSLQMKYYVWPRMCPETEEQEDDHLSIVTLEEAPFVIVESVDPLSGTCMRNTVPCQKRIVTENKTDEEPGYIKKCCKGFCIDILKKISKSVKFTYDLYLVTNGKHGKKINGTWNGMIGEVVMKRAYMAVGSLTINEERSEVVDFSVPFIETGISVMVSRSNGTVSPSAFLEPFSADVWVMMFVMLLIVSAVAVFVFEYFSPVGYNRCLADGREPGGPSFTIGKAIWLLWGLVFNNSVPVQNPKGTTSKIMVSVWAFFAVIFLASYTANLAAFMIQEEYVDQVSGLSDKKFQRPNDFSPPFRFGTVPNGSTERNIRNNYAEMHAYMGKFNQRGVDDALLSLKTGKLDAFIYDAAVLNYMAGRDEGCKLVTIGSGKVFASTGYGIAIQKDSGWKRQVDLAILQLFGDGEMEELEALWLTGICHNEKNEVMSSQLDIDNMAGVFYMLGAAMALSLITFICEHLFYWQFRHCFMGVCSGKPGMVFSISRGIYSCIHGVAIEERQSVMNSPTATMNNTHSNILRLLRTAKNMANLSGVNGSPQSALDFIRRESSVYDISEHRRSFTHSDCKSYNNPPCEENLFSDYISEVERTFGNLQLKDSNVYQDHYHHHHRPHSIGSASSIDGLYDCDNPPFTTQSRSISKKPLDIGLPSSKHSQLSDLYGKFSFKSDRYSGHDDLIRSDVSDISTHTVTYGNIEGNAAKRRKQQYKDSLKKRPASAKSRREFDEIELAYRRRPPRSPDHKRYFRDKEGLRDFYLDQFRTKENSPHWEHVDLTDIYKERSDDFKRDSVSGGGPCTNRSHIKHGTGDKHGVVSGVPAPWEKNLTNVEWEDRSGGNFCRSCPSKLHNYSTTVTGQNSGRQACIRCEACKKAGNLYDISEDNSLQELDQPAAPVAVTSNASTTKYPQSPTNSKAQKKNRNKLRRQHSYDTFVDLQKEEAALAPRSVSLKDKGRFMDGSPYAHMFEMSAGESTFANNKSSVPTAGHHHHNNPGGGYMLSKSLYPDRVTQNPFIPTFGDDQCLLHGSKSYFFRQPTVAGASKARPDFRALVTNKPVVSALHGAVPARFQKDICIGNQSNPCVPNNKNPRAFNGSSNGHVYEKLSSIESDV

Structure (SMILES) | inhibition at 10 µM [%]
Cc1cnn2ncc(CNC(=O)c3ccc(OC(F)F)c(F)c3)c2c1 [Example 38, 4-(difluoromethoxy)-3-fluoro-N-((5-methylpyrazolo[1,5-b]pyridazin-3-yl)methyl)benzamide] | 98
Cc1nn2cnccc2c1CNC(=O)c1ccc(OC(F)(F)F)c(F)c1 [Example 48, 3-fluoro-N-((2-methylpyrazolo[1,5-c]pyrimidin-3-yl)methyl)-4-(trifluoromethoxy)benzamide] | 90
CCOc1nn2ncccc2c1CNC(=O)c1ccc(OC(F)F)c(F)c1 [Example 25, 4-(difluoromethoxy)-N-((2-ethoxypyrazolo[1,5-b]pyridazin-3-yl)methyl)-3-fluorobenzamide] | 78
Cc1nn2ncccc2c1CNC(=O)c1cnc(OC(F)F)c(F)c1 [Example 17, 6-(difluoromethoxy)-5-fluoro-N-((2-methylpyrazolo[1,5-b]pyridazin-3-yl)methyl)nicotinamide] | 94
O=C(NCc1c(C2CC2)nn2ncccc12)c1ccc(OC(F)F)c(F)c1 [Example 29, N-((2-cyclopropylpyrazolo[1,5-b]pyridazin-3-yl)methyl)-4-(difluoromethoxy)-3-fluorobenzamide] | 89
O=C(NCc1cnn2ncccc12)c1ccc(OC(F)F)c(F)c1 [Example 15, 4-(difluoromethoxy)-3-fluoro-N-(pyrazolo[1,5-b]pyridazin-3-ylmethyl)benzamide] | 98
O=C(NCc1nnn2ncccc12)c1ccc(OC(F)F)c(Cl)c1 [Example 30, 3-chloro-4-(difluoromethoxy)-N-([1,2,3]triazolo[1,5-b]pyridazin-3-ylmethyl)benzamide] | 97
O=C(NCc1nnn2ncccc12)c1ccc(OC(F)(F)F)c(Cl)c1 [Example 40, 3-chloro-N-([1,2,3]triazolo[1,5-b]pyridazin-3-ylmethyl)-4-(trifluoromethoxy)benzamide] | 98
O=C(NCc1nnn2ncccc12)c1cnc(OC(F)F)c(F)c1 [Example 23, 6-(difluoromethoxy)-5-fluoro-N-([1,2,3]triazolo[1,5-b]pyridazin-3-ylmethyl)nicotinamide] | 95
O=C(NCc1nnn2ncccc12)c1cnc(OC(F)F)c(Cl)c1 [Example 22, 5-chloro-6-(difluoromethoxy)-N-([1,2,3]triazolo[1,5-b]pyridazin-3-ylmethyl)nicotinamide] | 98
O=C(NCc1nnn2ccccc12)c1ccc(OC(F)F)c(Cl)c1 [Example 34, 3-chloro-4-(difluoromethoxy)-N-([1,2,3]triazolo[1,5-a]pyridin-3-ylmethyl)benzamide] | 96
COc1c(F)cc(C(=O)NCc2cnn3ncccc23)cc1F [Example 12, 3,5-difluoro-4-methoxy-N-(pyrazolo[1,5-b]pyridazin-3-ylmethyl)benzamide] | 97
O=C(NCc1cnn2ncccc12)c1ccc(OC(F)(F)F)c(F)c1 [Example 5, 3-fluoro-N-(pyrazolo[1,5-b]pyridazin-3-ylmethyl)-4-(trifluoromethoxy)benzamide] | 99
O=C(NCc1nnn2ccccc12)c1cnc(OC(F)F)c(F)c1 [Example 14, 6-(difluoromethoxy)-5-fluoro-N-([1,2,3]triazolo[1,5-a]pyridin-3-ylmethyl)nicotinamide] | 94
Cc1cccn2nnc(CNC(=O)c3ccc(OC(F)(F)F)cc3)c12 [Example 2, N-((4-methyl[1,2,3]triazolo[1,5-a]pyridin-3-yl)methyl)-4-(trifluoromethoxy)benzamide] | 54
Cc1nn2ncccc2c1CNC(=O)c1cnc(OC(F)F)c(Cl)c1 [Example 46, 5-chloro-6-(difluoromethoxy)-N-((2-methylpyrazolo[1,5-b]pyridazin-3-yl)methyl)nicotinamide] | 96
Cc1cccn2nnc(CNC(=O)c3ccc(OC(F)F)c(Cl)c3)c12 [Example 3, 3-chloro-4-(difluoromethoxy)-N-((4-methyl[1,2,3]triazolo[1,5-a]pyridin-3-yl)methyl)benzamide] | 76
O=C(NCc1cnn2ccncc12)c1cnc(OC(F)F)c(F)c1 [Example 45, 6-(difluoromethoxy)-5-fluoro-N-(pyrazolo[1,5-a]pyrazin-3-ylmethyl)nicotinamide] | 92
CCc1nn2ncccc2c1CNC(=O)c1cnc(OC(F)F)c(F)c1 [Example 26, 6-(difluoromethoxy)-N-((2-ethylpyrazolo[1,5-b]pyridazin-3-yl)methyl)-5-fluoronicotinamide] | 90

The remaining lines, values ahead:

inhibition at 10 µM [%] | Structure (SMILES)
97 | Cc1nn2ncc(CNC(=O)c3ccc(OC(F)(F)F)c(F)c3)c2n1C [Example 71, N-[(1,2-dimethyl-1H-pyrazolo[1,5-b][1,2,4]triazol-7-yl)methyl]-3-fluoro-4-(trifluoromethoxy)benzamide]
83 | O=C(NCc1nnn2ccccc12)c1ccc(C(F)(F)F)c(F)c1 [Example 68, 3-fluoro-N-([1,2,3]triazolo[1,5-a]pyridin-3-ylmethyl)-4-(trifluoromethyl)benzamide]
84 | Cc1nn2cnccc2c1CNC(=O)c1cnc(OC(F)F)c(F)c1 [Example 55, 6-(difluoromethoxy)-5-fluoro-N-((2-methylpyrazolo[1,5-c]pyrimidin-3-yl)methyl)nicotinamide]
84 | Cc1ccnn2nnc(CNC(=O)c3cnc(OC(F)F)c(F)c3)c12 [Example 53, 6-(difluoromethoxy)-5-fluoro-N-((4-methyl[1,2,3]triazolo[1,5-b]pyridazin-3-yl)methyl)nicotinamide]
96 | Cn1ccn2ncc(CNC(=O)c3ccc(OC(F)(F)F)nc3)c12 [Example 64, N-((1-methyl-1H-imidazo[1,2-b]pyrazol-7-yl)methyl)-6-(trifluoromethoxy)nicotinamide]
91 | Cc1nn2ncc(CNC(=O)c3cnc(OC(F)F)c(Cl)c3)c2n1C(F)F [Example 75, 5-chloro-6-(difluoromethoxy)-N-{[1-(difluoromethyl)-2-methyl-1H-pyrazolo[1,5-b][1,2,4]triazol-7-yl]methyl}pyridine-3-carboxamide]
81 | Cc1nn2ncc(CNC(=O)c3ccc(OC(F)(F)F)c(F)c3)c2n1CC(F)F [Example 78, N-{[1-(2,2-difluoroethyl)-2-methyl-1H-pyrazolo[1,5-b][1,2,4]triazol-7-yl]methyl}-3-fluoro-4-(trifluoromethoxy)benzamide]
96 | Cn1ccn2ncc(CNC(=O)c3ccc(C(F)(F)F)s3)c12 [Example 65, N-((1-methyl-1H-imidazo[1,2-b]pyrazol-7-yl)methyl)-5 (trifluoromethyl)thiophene-2-carboxamide]
92 | O=C(NCc1nnn2ccccc12)c1ccc(OC(F)(F)F)cc1 [Example 69, N-([1,2,3]triazolo[1,5-a]pyridin-3-ylmethyl)-4-(trifluoromethoxy)benzamide]
72 | O=C(NCc1cnn2ccn(CC(F)(F)F)c12)c1cnc(OC(F)F)c(F)c1 [Example 82, 6-(difluoromethoxy)-5-fluoro-N-{[1-(2,2,2-trifluoroethyl)-1H-imidazo[1,2-b]pyrazol-7-yl]methyl}pyridine-3-carboxamide]
95 | Cc1nn2ncc(CNC(=O)c3cnc(OC(F)F)c(Cl)c3)c2n1C [Example 72, 5-chloro-6-(difluoromethoxy)-N-[(1,2-dimethyl-1H-pyrazolo[1,5-b][1,2,4]triazol-7-yl)methyl]pyridine-3-carboxamide]
87 | O=C(NCc1cnn2ccn(CC(F)F)c12)c1cnc(OC(F)F)c(F)c1 [Example 79, N-{[1-(2,2-difluoroethyl)-1H-imidazo[1,2-b]pyrazol-7-yl]methyl}-6-(difluoromethoxy)-5-fluoropyridine-3-carboxamide]
97 | Cn1ccn2ncc(CNC(=O)c3cnc(OC(F)F)c(Cl)c3)c12 [Example 59, 5-chloro-6-(difluoromethoxy)-N-((1-methyl-1H-imidazo[1,2-b]pyrazol-7-yl)methyl)nicotinamide]
